Experimental data: patent EP0011663A1, “Toilet and dental preparations and their use for oral and dental hygiene” (UNILEVER PLC, priority 1978, dated 1980)
Entries after “also recorded” stand apart in the source; their conditions may differ. Read-outs that look alike come from different tables or passages of the source. Marks after values point to notes of the source that are not given here.

How the values were obtained:
in vitro plaque [1] = assay: in vitro artificial plaque assay on saliva-coated aluminium plummets (Tests 1, 3, 4 and general statements); format: cell-based; settings: for minimum amount of the metal compound necessary to result in control of plaque: at the site of formation of the plaque, under the conditions of the tests
Procedure: An in vitro test was used in the Tests described herein for examining and effects of chemotherapeutic agents on plaque, and was carried out in accordance with the test reported in the Journal of Dental Research, Vol. 55, February 1976, page B286, by R T Evans, P J Baker, R A Coburn and R J Genco. An assay system for producing artificial plaque was used to screen antiplaque agents rapidly under conditions which simulated those found in the oral cavity.
The in vitro plaque was formed at 37°C on uniformly- sized aluminium plummets which were first coated with saliva. The plummets were then placed in a growth medium inoculated with clinical plaque samples. After seven hours the plummets were suspended overnight in a 25;0 saliva mixture. On the second day, the plummets were immersed in a 50% saliva - 50% test compound mixture for one minute, placed in the growth medium for seven hours, retreated with the test mixture and suspended in 25% saliva overnight. The plummets were treated again on the third day and incubated in the growth medium for three hcurs. The plaques were removed from the plummets by donication into approximately six millilitres of buffer and quantitated by optical density (O.D.) in a Beckman DU spectrophotometer at 570 nm.
Positive controls were included to determine relative activity. Comparisons of antiplaque activity were then made within a given experiment. At least five replicas per compound were examined.
The experiments are conducted in the same manner, in a 15% ethanol/water media at pH 5.
The effects of 0.060% tetradecylamine (TDA) 0.05 SnCl4, and the combination of SnCl and TDA at these concentrations are examined by the artificial plaque method previously described, all with 15% ethanol, at pH 2.6.

rats = settings: orally in rats; Seventh Issue of the Merck Index; cited from earlier work
plaque = settings: clinical data, zinc salt alone; cited from earlier work
in vitro plaque [2] = assay: in vitro artificial plaque assay, treatment on the third day eliminated (Test 2); format: cell-based; settings: no treatment on third day
Procedure: An in vitro test was used in the Tests described herein for examining and effects of chemotherapeutic agents on plaque, and was carried out in accordance with the test reported in the Journal of Dental Research, Vol. 55, February 1976, page B286, by R T Evans, P J Baker, R A Coburn and R J Genco. An assay system for producing artificial plaque was used to screen antiplaque agents rapidly under conditions which simulated those found in the oral cavity. […] The assay gives reproducible, quantitative results and has the ability to distinguish between antibacterial agents which are clinically effective or non-effective as plaquae inhibitors. The in vitro plaque was formed at 37°C on uniformly- sized aluminium plummets which were first coated with saliva. The plummets were then placed in a growth medium inoculated with clinical plaque samples. After seven hours the plummets were suspended overnight in a 25;0 saliva mixture. On the second day, the plummets were immersed in a 50% saliva - 50% test compound mixture for one minute, placed in the growth medium for seven hours, retreated with the test mixture and suspended in 25% saliva overnight. The plummets were treated again on the third day and incubated in the growth medium for three hcurs. The plaques were removed from the plummets by donication into approximately six millilitres of buffer and quantitated by optical density (O.D.) in a Beckman DU spectrophotometer at 570 nm. […] Positive controls were included to determine relative activity. Comparisons of antiplaque activity were then made within a given experiment. At least five replicas per compound were examined. To test higher levels of tetradecylamine, the artificial plaque treatment previously described is eliminated on the third day to simulate infrequent use of the antiplaque products.

[3] = critical micellar concentration (CMC); format: physicochemical
[4] = cation or anion as such, by the in vitro assay
[5] = amine in place of tetradecylamine, in combination with metal compounds (zinc or aluminium)
[6] = metal salt alone 0.10 % Wt./Vol., 15% ethanol/water, pH 5
[7] = addition of CO2 to tetradecylamine

Compound: [Cl-].[Cl-].[Zn+2] [ZnCl2, reference compound]
- Average Optical Density (in vitro plaque [1]; ZnCl2 .30 % Wt/Vol, 15% ethanol, pH 4.1, O.D. at 570 nm): .766
- % Reduction (in vitro plaque [1]; ZnCl2 .30 % Wt/Vol, 15% ethanol, pH 4.1, vs H2O control, negative = weight gain): -8.0* %

Compound: [K+] [potassium]
- synergistic plaque reductions (in vitro plaque [1]; [4]): have not been found to give synergistic plaque reductions; also recorded: did not give synergistic plaque reductions

Compound: CCCCCCCCCCCCCCCCCCN(C)C [N,N'-dimethyl-octadecylamine, reference compound]
- synergistic plaque reductions (in vitro plaque [1]; [5]): do not give synergistic plaque reductions

Compound: [Sn] [tin]
- minimum amount of the metal compound necessary to result in control of plaque (in vitro plaque [1]): ~500 µM
- LD50 (rats): about 0.05 g/kg body weight

Compound: CCCCCCCCCCCCN [Dodecylamine, reference compound]
- synergistic plaque reductions (in vitro plaque [1]; [5]): do not give synergistic plaque reductions
- synergistic plaque reductions (in vitro plaque [1]; amine in place of tetradecylamine, in combination with metal compounds (zinc or aluminium), listed as dodecylamine): not found

Compound: [Mg+2] [magnesium]
- synergistic plaque reductions (in vitro plaque [1]; [4]): have not been found to give synergistic plaque reductions; also recorded: did not give synergistic plaque reductions

Compound: O=S(=O)(O)O [sulphate]
- synergistic plaque reductions (in vitro plaque [1]; [4]): synergism has not been found; also recorded: synergism was not found

Compound: [HH] [hydrogen]
- synergistic plaque reductions (in vitro plaque [1]; [4]): have not been found to give synergistic plaque reductions; also recorded: did not give synergistic plaque reductions

Compound: CCCCCCCCCCCCN(C)C [dimethyldodecylamine, reference compound]
- synergistic plaque reductions (in vitro plaque [1]; [5]): do not give synergistic plaque reductions

Compound: phosphate
- synergistic plaque reductions (in vitro plaque [1]; [4]): synergism has not been found; also recorded: synergism was not found

Compound: O.O.O.O.O.O.[Cl-].[Cl-].[Co+2] [CoCl2.6H2O, reference compound]
- % Reduction (in vitro plaque [1]; [6]): -25%

Compound: O.O.O.O.O.[Cl][Sn]([Cl])([Cl])[Cl] [SnCl4.5H2O, reference compound]
- % Reduction (in vitro plaque [1]; SnCl4.5H2O 0.05 % Wt/Vol., 15% ethanol, pH 2.6, negative = weight gain): -8* %

Compound: O.O.O.O.O.O.[Cl-].[Cl-].[Cl-].[Fe+3] [FeCl3.6H2O, reference compound]
- % Reduction (in vitro plaque [1]; [6]): -38%

Compound: O=[N+]([O-])O [nitrate]
- synergistic plaque reductions (in vitro plaque [1]): synergism has not been found; also recorded: synergism was not found

Compound: [O-][n+]1ccccc1[S-].[O-][n+]1ccccc1[S-].[Zn+2] [zinc salt]
- reduction in plaque (plaque): about 5%

Compound: [Cu] [copper]
- minimum amount of the metal compound necessary to result in control of plaque (in vitro plaque [1]): ~500 µM
- LD50 (rats): 0.3-0.9 g/kg body weight

Compound: O.O.O.O.O.O.[Cl][Ni][Cl] [NiCl2.6H2O, reference compound]
- % Reduction (in vitro plaque [1]; [6]): -17%

Compound: [Ca+2] [calcium]
- synergistic plaque reductions (in vitro plaque [1]): have not been found to give synergistic plaque reductions; also recorded: did not give synergistic plaque reductions

Compound: [Co] [cobalt]
- minimum amount of the metal compound necessary to result in control of plaque (in vitro plaque [1]): ~500 µM
- LD50 (rats): 0.3-0.9 g/kg body weight

Compound: [Al] [aluminium]
- minimum amount of the metal compound necessary to result in control of plaque (in vitro plaque [1]): about 0.001 molar
- LD50 (rats): 3-4 g/kg body weight

Compound: F [fluoride]
- synergistic plaque reductions (in vitro plaque [1]): synergism has not been found; also recorded: synergism was not found

Compound: [Na] [sodium]
- synergistic plaque reductions (in vitro plaque [1]; [4]): have not been found to give synergistic plaque reductions; also recorded: did not give synergistic plaque reductions

Compound: CCCCCCCCCCCCCCCCN [hexadecylamine, reference compound]
- synergistic plaque reductions (in vitro plaque [1]; [5]): do not give synergistic plaque reductions; also recorded: not found

Compound: [Ni] [nickel]
- minimum amount of the metal compound necessary to result in control of plaque (in vitro plaque [1]): ~500 µM
- LD50 (rats): 0.3-0.9 g/kg body weight

Compound: CCCCCCCCCCCCCCCC[n+]1ccccc1 [CPC, cetyl pyridinium chloride, reference compound]
- Average Optical Density (in vitro plaque [1]; pH 4.1): .515

Compound: CCCCCCCCCCN [decylamine, reference compound]
- synergistic plaque reductions (in vitro plaque [1]; [5]): do not give synergistic plaque reductions

Compound: Cl [chloride]
- synergistic plaque reductions (in vitro plaque [1]; [4]): synergism has not been found; also recorded: synergism was not found

Compound: [Zn] [zinc]
- minimum amount of the metal compound necessary to result in control of plaque (in vitro plaque [1]): about 0.001 molar
- LD50 (rats): 3-4 g/kg body weight

Compound: O.O.O.O=[N+]([O-])[O-].O=[N+]([O-])[O-].[Cu+2] [Cu(NO3)2.3H2O, reference compound]
- % Reduction (in vitro plaque [1]; [6]): -10%

Compound: CCCCCCCCCCCCCCN [TDA, tetradecylamine, reference compound]
- Average Optical Density (in vitro plaque [2]; TDA .120 % Wt/Vol): .882
- inhibition at 0.12 % (in vitro plaque [2]; TDA .120 % Wt/Vol, vs H2O control, read-out: % Reduction): 20.7%
- CMC [3, 7]: lowering
- critical micellar concentration (CMC) ([3]; in combination with selected metals): lowered
- inhibition at 0.06 % (in vitro plaque [1]; TDA 0.06 % Wt./Vol., 15% ethanol/water, pH 5, read-out: % Reduction): 19%
- inhibition at 0.06 % (in vitro plaque [1]; TDA 0.06 % Wt/Vol., 15% ethanol, pH 2.6, read-out: % Reduction): 19%
- Average Optical Density (in vitro plaque [1]; TDA .060 % Wt/Vol, 15% ethanol, pH 4.1, O.D. at 570 nm): .571
- inhibition at 0.06 % (in vitro plaque [1]; TDA .060 % Wt/Vol, 15% ethanol, pH 4.1, vs H2O control, read-out: % Reduction): 18.8%
- antiplaque activity (in vitro plaque [1]; [7]): increased
- inhibition at 0.06 % (in vitro plaque [1]; dose-response curve, tetradecylamine 0.060%, no metal present, read-out: plaque reduction): 18%
- inhibition at 0.2 % (in vitro plaque [1]; dose-response curve, tetradecylamine 0.20%, no metal present, read-out: plaque reduction): 44%

Compound: [Fe] [iron]
- minimum amount of the metal compound necessary to result in control of plaque (in vitro plaque [1]): ~500 µM
- LD50 (rats): 0.3-0.9 g/kg body weight

Compound: O.O.O.O.O.O.[Al+3].[Cl-].[Cl-].[Cl-] [AlCl3.6H2O]
- Average Optical Density (in vitro plaque [2]; AlCl3.6H2O 1.00 % Wt/Vol): 1.218
- % Reduction (in vitro plaque [2]; AlCl3.6H2O 1.00 % Wt/Vol, negative = weight gain): -9.4* %
- Average Optical Density (in vitro plaque [2]; AlCl3.6H2O .250 % Wt/Vol): 1.080
- % Reduction (in vitro plaque [2]; AlCl3.6H2O .250 % Wt/Vol, vs H2O control): 3.0%
